By solubility is commonly meant the concentration that dissolves in the medium under given conditions. Lower therefore signals little dissolved substance.

Consider three molecules from patent US9650388B2, “Form 2 crystalline polymorph of a salt of N-[1-6-(ethynyl-3-oxo-hexahydro-furo[3,2-B]pyrrole-4-carbonyl)-3-methyl-butyl]-4-[5-fluoro-2-(4-methyl-piperazinyl) thiazol-4-yl]-benzamide useful as cysteine protease inhibitor” (MEDIVIR AB, priority 2013, dated 2017).

In brackets after ≈: the same amount, converted by molar mass.

Common to all, as to format: physicochemical
Data set [1] in a line: Thermal analysis by DSC and TGA. The note with it: 10° C./min; for temperature of mass loss(es) on heating: TGA, Form 1: two distinct mass losses (FIG. 13), free base: a mass loss, probably water (FIG. 14). As to the method:
Differential Scanning Calorimetry (DSC)
DSC data were collected on a Mettler DSC 823e equipped with a 34 position auto-sampler. The instrument was calibrated for energy and temperature using certified indium. Typically 0.5-3 mg of each sample, in a pin-holed aluminium pan, was heated at 10° C./min from 25° C. to 300° C. A nitrogen purge at 50 ml/min was maintained over the sample.
Thermogravimetric Analysis (TGA)
TGA data were collected on a Mettler TGA/SDTA 851e equipped with a 34 position auto-sampler. The instrument was temperature calibrated using certified indium. Typically 5-30 mg of each sample was loaded onto a pre-weighed aluminium crucible and was heated at 10° C./min from ambient temperature to 400° C. A nitrogen purge at 50 ml/min was maintained over the sample.
Thermal analysis of Form 2 crystalline polymorph (a sample obtained using the method in Example 6) by DSC and TGA was undertaken using the method describe in General Methods. […]

Data set [2] in a line: Gravimetric vapour sorption (GVS). Particulars: 25° C. As to the method:
Gravimetric Vapour Sorption (GVS)
Sorption isotherms were obtained using a SMS DVS Intrinsic moisture sorption analyser, controlled by DVS Intrinsic Control software v1.0.0.30. The sample temperature was maintained at 25° C. by the instrument controls. The humidity was controlled by mixing streams of dry and wet nitrogen, with a total flow rate of 200 ml/min The relative humidity was measured by a calibrated Rotronic probe (dynamic range of 1.0-100% RH), located near the sample. The weight change, (mass relaxation) of the sample as a function of % RH was constantly monitored by the microbalance (accuracy ±0.005 mg).
Typically 5-20 mg of sample was placed in a tared mesh stainless steel basket under ambient conditions. The sample was loaded and unloaded at 40% RH and 25° C. (typical room conditions). A moisture sorption isotherm was performed as outlined below (2 scans giving 1 complete cycle). The standard isotherm was performed at 25° C. at 10% RH intervals over a 0-90% RH range. Data analysis was undertaken in Microsoft Excel using DVS Analysis Suite v6.0.0.7.
The sample was recovered after completion of the isotherm and re-analysed by XRPD.
Gravimetric vapour sorption analysis of Form 2 crystalline polymorph (a sample obtained using the method in Example 6) was undertaken using the method described in General Methods.

Data set [3] is described as follows: Solid state 13C NMR, environmental dependence of ketone:hydrate ratio. Particulars: as prepared 67:33. How it is done: The analysis was carried out using a Varian VNMRS instrument operating at 100.56 MHz for ^13C (399.88 MHz for 1H) and 376.24 MHz for ^19F with a 4 mm (rotor o.d.) magic-angle spinning probe. Carbon-13 spectra were recorded from the sample using a crosspolarization magic-angle spinning (CPMAS) technique without and with dipolar dephasing (interrupted decoupling). Appropriate acquisition conditions were established using a set of short trial measurements: recycle 5 s, contact time 5 ms. A sample spin-rate of 10.0 kHz was used along with two-pulse phase-modulated (TPPM) 1H decoupling (at a radiofrequency field approximately equivalent to 75 kHz). The sample was run as-received and at ambient probe temperature (˜30° C. at this spin rate). Spectra are referenced with respect to neat tetramethylsilane (by setting the high-frequency line from adamantane to 38.5 ppm). The ^19F spectrum was obtained by direct excitation following a 3.6 μs 90° pulse, with a 60 s relaxation delay, at spin rate of 14 kHz and with no 1H decoupling. The spectrum is referenced relative to CFCI3.
The analysis was carried out using a Varian VNMRS instrument operating at 100.56 MHz for ^13C (399.88 MHz for 1H) and a 6 mm (rotor o.d.) magic-angle spinning probe. Carbon-13 spectra were recorded from the sample using a cross-polarization magic-angle spinning (CPMAS) technique. […]
The ^13C solid state NMR spectrum of a sample of Form 2 crystalline polymorph produced using the method of Example 5 is illustrated in FIG. 5. Based on the integration of the 208 ppm (ketone) and 102 ppm (hydrate) signals, the ketone:hydrate ratio was determined to be 67:33.
The ^13C solid state NMR spectrum illustrated in FIG. 6 was recorded after the sample had been stored at a relative humidity of <2% for one week. […] The ^13C solid state NMR spectrum shown in FIG. 7 was recorded after the sample had been stored at 75% RH for one week. […] The ^13C solid state NMR spectrum shown in FIG. 8 was recorded at 80° C. and gives a ketone content of 68%.

Data set [4] can be described thus: Thermodynamic aqueous solubility. How it is done: Thermodynamic Aqueous Solubility
The suspension was equilibrated at 25° C. for 24 hours then the pH was measured. The suspension was then filtered through a glass fibre C filter into a 96 well plate. […] Quantitation was by HPLC with reference to a standard solution of approximately 0.25 mg·ml^−1 in DMSO. Different volumes of the standard, diluted and undiluted sample solutions were injected.
Analysis was performed on an Agilent HP1100 series system equipped with a diode array detector and using ChemStation software vB.02.01-SR1.

Consider “N-[1-6-(ethynyl-3-oxo-hexahydro-furo[3,2-b]pyrrole-4-carbonyl)-3-methyl-butyl]-4-[5-fluoro-2-(4-methyl-piperazin-1-yl)thiazol-4-yl]-benzamide monohydrochloride and N-[1-6-(ethynyl-3-oxo-hexahydro-furo[3,2-b]pyrrole-4-carbonyl)-3-methyl-butyl]-4-[5-fluoro-2-(4-methyl-piperazin-1-yl)thiazol-4-yl]-benzamide hydrate monohydrochloride [Form 2 crystalline polymorph]”, for which the “temperature at which degradation begins” value in data set [1] (DSC/TGA, nitrogen, small mass loss until this temperature (FIG. 12)) is 160 °C. The “reversibility of water uptake” value in data set [2] (0-90% RH range) was “reversible”. Besides, in data set [2] (over the 0-90% RH range), the water uptake is given as around 2.2%. For the same molecule, the “ketone share of ketone/hydrate signal intensity” value in data set [3] (after storage at 75% RH for one week (FIG. 7)) and in data set [3] (after storage at relative humidity <2% for one week (FIG. 6)) was 67% throughout. In data set [3] (spectrum recorded at 80° C. (FIG. 8)), the ketone content came to 68%.
The molecule `C#C[C@@H]1CN(C(=O)[C@H](CC(C)C)NC(=O)c2ccc(-c3nc(N4CCN(C)CC4)sc3F)cc2)[C@@H]2C(=O)CO[C@H]12` [Compound I free base, N-[1-6-(ethynyl-3-oxo-hexahydro-furo[3,2-b]pyrrole-4-carbonyl)-3-methyl-butyl]-4-[5-fluoro-2-(4-methyl-piperazin-1-yl)thiazol-4-yl]-benzamide] showed a solubility at 24 h in data set [4] (pH 5.8, thermodynamic from solid, suspension in water equilibrated at 25° C. for 24 hours, filtered, HPLC, pH of each suspension printed in same cell) of 300 µg/mL (≈ 528 µM). For the same molecule, in data set [4] (water, 25° C., 24 hours), the “pH measured after equilibration of the solubility suspension” value is 5.8. In addition, the “temperature of mass loss(es) on heating” value in data set [1] was “below 110 °C”.
For the molecule `C#CC1CN(C(=O)C(CC(C)C)NC(=O)c2ccc(-c3nc(N4CCN(C)CC4)sc3F)cc2)C2C(=O)COC12.Cl` (stereo not shown) [Form 1 crystalline polymorph, N-[1-6-(ethynyl-3-oxo-hexahydro-furo[3,2-b]pyrrole-4-carbonyl)-3-methyl-butyl]-4-[5-fluoro-2-(4-methyl-piperazin-1-yl)thiazol-4-yl]-benzamide monohydrochloride], in data set [1], the “temperature of mass loss(es) on heating” value was “below 160 °C”.
